{"source": "patent US20210310069A1", "about": "“METHODS FOR DETERMINING GENE-ALPHA TOCOPHEROL INTERACTIONS” (BodySync. Inc., priority 2009, published 2021)", "key": {"[1]": {"settings": "subjects who took vitamin E supplements; adjusted for age, smoking status, intake of carotene and vitamin C; cited from earlier work"}, "[2]": {"assay": "Fasting plasma alpha-tocopherol by fluorimetry in healthy men supplemented with αT for six weeks", "type": "in vivo, human", "settings": "for fasting plasma αT mean: 6-weeks", "from_the_text": "(§1) Healthy middle-aged male volunteers (mean age 52.7±10 years; median years) were given dietary supplements of either […] (moderate dose), or […] (high dose) RRR-α tocopherol per day for six weeks. Subject numbers in each group were 57 and 102 respectively. All research participants gave written informed consent to take part. The study protocol was approved by the Southampton University Hospitals Trust Clinical Ethics Committee authorized the research protocol. Study participants continued with their normal diets while receiving the supplements. Subjects continued with their normal daily activities while on the study but visited the Wellcome Trust Clinical Research Facility at Southampton University Hospital Trust, after an overnight fast, at the beginning and end of the supplementation period. At the visit weight, height, and waist and hip circumference were measured, and blood samples taken for the measurement of cytokines.\n(§2) Alpha-tocopherol in plasma was determined using fluorimetry according to methods described elsewhere (11). The limit of detection for αT was 7.2 pmol/L. Peripheral blood mononuclear cells (PBMCs) were prepared from heparinized whole blood samples using Leucosep sterile centrifuge tubes (Greiner Bio-one, Germany) and Histopaque gradient solution (Sigma-Aldrich Inc, MO, USA) and cultured in the presence of Lipopolysaccharide (LPS) (Sigma-Aldrich Inc, MO, USA) for 24h after which time the supernatants were removed and stored. Interleukin-6 (IL-6), tumor necrosis factor (TNF) and interleukin-1β (IL-1β) protein levels were quantitatively measured by the BD CBA Human Inflammation Kit (BD Bioscience, San Jose, Calif., USA). The operations were performed according to the manufacturer's instructions. The intensity of the fluorescence signal was acquired on a fluorescence activated cell sorter (FACS) flow cytometer (BD Becton-Dickinson), and analyzed using CBA software. The concentration range for detection using this assay is 20-5000 pg/ml for each of the proteins."}, "IL-6": {"tested_on": "IL-6", "assay": "IL-6 level of LPS-cultured PBMCs (BD CBA Human Inflammation Kit) from healthy men after 6 weeks of αT supplementation", "type": "in vivo", "settings": "for PMBC cytokine levels IL-6 mean: 6-weeks", "from_the_text": "as §1, §2\n(§3) A linear regression was carried out where the outcome variable was Log(DeltaCk+minDeltaCk) Where Ck stands for IL-1, IL-6 or TNF-alpha. And DeltaCk=Followup-Baseline serum cytokine levels, and minDelta the most negative DeltaCk (<0) observed in the population baseline value, alpha tocopherol dose group, smoking status (age+BMI) were included as covariates."}, "TNFα": {"tested_on": "TNFα", "assay": "TNFα level of LPS-cultured PBMCs (BD CBA Human Inflammation Kit) from healthy men after 6 weeks of αT supplementation", "type": "in vivo", "settings": "for PMBC cytokine levels TNFα mean: 6-weeks", "from_the_text": "as §1, §2, §3"}, "IL-1": {"tested_on": "IL-1", "assay": "IL-1 (IL-1β) level of LPS-cultured PBMCs (BD CBA Human Inflammation Kit) from healthy men after 6 weeks of αT supplementation", "type": "in vivo", "settings": "for PMBC cytokine levels IL-1 mean: 6-weeks", "from_the_text": "as §1, §2, §3"}}, "data": [{"compound": "vitamin E", "values": [{"measurement": "reduction of major coronary heart disease", "setting": "[1]", "value": 30, "unit": "%"}]}, {"compound": "Cc1c(C)c2c(c(C)c1O)CC[C@@](C)(CCC[C@H](C)CCC[C@H](C)CCCC(C)C)O2", "note": "[αT, RRR-α tocopherol]", "values": [{"measurement": "fasting plasma αT mean", "setting": "[2]; 75 IU/d, n = 57 healthy males", "value": 22.6, "unit": "µmol/L"}, {"measurement": "fasting plasma αT mean", "setting": "[2]; 600 IU/d, n = 102 healthy males", "value": 31.3, "unit": "µmol/L"}, {"measurement": "change in plasma fasting levels of alpha-tocopherol", "setting": "[2]; both dose groups (75 and 600 IU/d), 6 weeks", "value": "increase"}, {"measurement": "PMBC cytokine levels IL-6 mean", "setting": "IL-6; 75 IU/d", "value": 18.71, "unit": "ng/L"}, {"measurement": "PMBC cytokine levels IL-6 mean", "setting": "IL-6; 600 IU/d", "value": 16.73, "unit": "ng/L"}, {"measurement": "change in IL-6 serum levels by genotype", "setting": "IL-6; GSTP1 313 AG and GG carriers (so in the source), 6 weeks", "value": "increase"}, {"measurement": "change in IL-6 levels by genotype", "setting": "IL-6; SOD-28 TT versus CT and CC variants, 6 weeks, not significant after adjusting for multiple tests", "value": "lower increase"}, {"measurement": "change in serum levels of IL-6", "setting": "IL-6; both treatment groups, 6 weeks", "value": "increase"}, {"measurement": "change in IL-6 levels by genotype", "setting": "IL-6; variant homozygotes GSTP1 313 (GG), 6 weeks, p<0.019", "value": "decreased levels"}, {"measurement": "PMBC cytokine levels TNFα mean", "setting": "TNFα; 75 IU/d", "value": 1.48, "unit": "ng/L"}, {"measurement": "PMBC cytokine levels TNFα mean", "setting": "TNFα; 600 IU/d", "value": 1.31, "unit": "ng/L"}, {"measurement": "change in TNFα by genotype", "setting": "TNFα; GA genotype at TNF-238, 6 weeks, p<0.016 after correcting for multiple tests", "value": "decrease"}, {"measurement": "change in serum levels of TNFα", "setting": "TNFα; both treatment groups, 6 weeks", "value": "increase"}, {"measurement": "change in serum levels of TNFα by genotype", "setting": "TNFα; genotypes AG and AA for IL10-1082 SNP and GG for TNF-238 SNP, 6 weeks", "value": "increase"}, {"measurement": "increase in TNFα after supplementation", "setting": "TNFα; low-dose group (75 IU/d), 6 weeks, p<0.011 after adjusting for age, baseline levels, smoking status and BMI", "value": 40.5, "unit": "%"}, {"measurement": "PMBC cytokine levels IL-1 mean", "setting": "IL-1; 75 IU/d", "value": 7.38, "unit": "ng/L"}, {"measurement": "PMBC cytokine levels IL-1 mean", "setting": "IL-1; 600 IU/d", "value": 6.93, "unit": "ng/L"}, {"measurement": "change in IL1 levels by genotype", "setting": "IL-1; GG carriers at IL10-1082, 6 weeks", "value": "lower increase"}, {"measurement": "change in IL-1 levels by genotype", "setting": "IL-1; GG genotype at GSTP1 313, 6 weeks, not significant after FDR correction", "value": "decrease"}, {"measurement": "change in serum levels of IL-1", "setting": "IL-1; both treatment groups, 6 weeks", "value": "increase"}, {"measurement": "change in IL1 levels by genotype", "setting": "IL-1; common genotypes at IL10-592 (CC) and IL10-819, 6 weeks", "value": "lower increase"}]}]}
